pIC50: −log10 of the molar value. Calls of active or inactive are those of the source. The rule behind the calls is not given here.
Key:
[1] = target: T1, N-terminal Xaa-Pro-Lys N-methyltransferase 1 (Homo sapiens, UniProt Q9BV86); assay: Inhibition of N-terminal 6-his tagged TEV fused full length human NTMT1 (1 to 222 residues) expressed in Escherichia coli BL21-Codonplus(DE3)-RIL cells using GPKRIA peptide as substrate preincubated with compound for 10 mins followed by substrate addition and measured immediately by SAHH-coupled fluorescence analysis
T1 sequence (Q9BV86 whole entry): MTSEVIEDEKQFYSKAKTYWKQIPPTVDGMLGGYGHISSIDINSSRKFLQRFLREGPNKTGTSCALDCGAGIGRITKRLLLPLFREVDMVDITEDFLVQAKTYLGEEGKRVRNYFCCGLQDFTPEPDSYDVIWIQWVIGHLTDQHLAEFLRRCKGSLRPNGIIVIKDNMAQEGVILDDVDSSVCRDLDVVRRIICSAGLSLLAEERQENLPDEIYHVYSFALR

[2] = Dose normalized AUClast in CD-1 mouse at 25 mg/kg, po measured upto 24 hrs; type: ADME, organism-based; conditions: in vivo
[3] = Drug concentration in CD-1 mouse plasma at 25 mg/kg, po measured after 4 hrs; type: ADME, organism-based
[4] = Half-life in CD-1 mouse at 25 mg/kg, po measured upto 24 hrs; type: ADME, organism-based; conditions: in vivo
[5] = Toxicity in Balb/c mouse assessed as animal death at 400 mg/kg, po administered as single dose and measured 15 mins post administration; type: organism-based; conditions: in vivo, 0.25 h
[6] = Toxicity in Balb/c mouse assessed as effect on body weight loss at 100 to 200 mg/kg, po administered as single dose for 2 weeks; type: organism-based; conditions: in vivo, 336 h, dose 100-200 mg/kg
[7] = Toxicity in Balb/c mouse assessed as effect on response at 250 to 350 mg/kg, po administered as single dose for 2 weeks; type: organism-based; conditions: in vivo, 336 h, dose 250-350 mg/kg
[8] = Toxicity in Balb/c mouse assessed as effect on alert behaviour at 250 to 350 mg/kg, po administered as single dose for 2 weeks; type: organism-based; conditions: in vivo, 336 h, dose 250-350 mg/kg
[9] = Toxicity in Balb/c mouse assessed as effect on response at 100 to 200 mg/kg, po administered as single dose for 2 weeks; type: organism-based; conditions: in vivo, 336 h, dose 100-200 mg/kg
[10] = Tmax in CD-1 mouse at 25 mg/kg, po measured upto 24 hrs; type: ADME, organism-based; conditions: in vivo
[11] = Toxicity in Balb/c mouse assessed as effect on bright behaviour at 250 to 350 mg/kg, po administered as single dose for 2 weeks; type: organism-based; conditions: in vivo, 336 h, dose 250-350 mg/kg
[12] = Toxicity in Balb/c mouse assessed as effect on body weight loss at 250 to 350 mg/kg, po administered as single dose for 2 weeks; type: organism-based; conditions: in vivo, 336 h, dose 250-350 mg/kg
[13] = AUClast in CD-1 mouse at 25 mg/kg, po measured upto 24 hrs; type: ADME, organism-based; set-up: time < 24 hrs, dose 25 mg/kg, route po; conditions: in vivo
[14] = target: T2, Ceramide glucosyltransferase (Homo sapiens) (UniProt Q16739); conditions: HCT-116, dose 30.0 nM, time 52.0 hrs
T2 sequence (whole entry): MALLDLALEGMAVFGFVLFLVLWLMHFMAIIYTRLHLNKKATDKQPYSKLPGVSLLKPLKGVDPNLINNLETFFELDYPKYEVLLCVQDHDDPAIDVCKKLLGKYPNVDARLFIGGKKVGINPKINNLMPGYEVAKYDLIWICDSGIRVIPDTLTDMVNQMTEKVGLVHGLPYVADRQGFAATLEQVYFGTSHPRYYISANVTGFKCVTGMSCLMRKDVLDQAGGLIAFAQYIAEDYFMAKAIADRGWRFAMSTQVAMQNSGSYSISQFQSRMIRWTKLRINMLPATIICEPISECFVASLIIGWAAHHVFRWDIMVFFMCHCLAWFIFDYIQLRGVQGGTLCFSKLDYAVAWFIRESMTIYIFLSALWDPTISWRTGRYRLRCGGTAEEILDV

Row | Compound | pIC50 [1] | further results
1 | O=C(NCc1csc(-c2ccc(F)cc2)n1)O[C@@H]1CN2CCC1CC2 | < 4.00 | –
2 | CC(C)(NC(=O)O[C@@H]1CN2CCC1CC2)c1csc(-c2ccccn2)n1 | 5.43 | –
3 | CC(C)(NC(=O)O[C@H]1CCCNC1)c1csc(-c2ccc(F)cc2)n1 | < 4.00 | –
4 | CC(C)(NC(=O)O[C@@H]1CN2CCC1CC2)c1csc(-c2cccs2)n1 | 5.62 | –
5 | CC(C)(NC(=O)O[C@@H]1CN2CCC1CC2)c1csc(-c2cccc([N+](=O)[O-])c2)n1 | 4.19 | –
6 | CC(C)(NC(=O)O[C@@H]1CN2CCC1CC2)c1csc(-c2ccc(O)cc2)n1 | 4.60 | –
7 | CC(C)c1nc(C(C)(C)NC(=O)O[C@@H]2CN3CCC2CC3)cs1 | < 4.00 | –
8 | CC(C)(NC(=O)O[C@@H]1CN2CCC1CC2)c1csc(-c2ccc(C(=O)O)cc2)n1 | < 4.00 | –
9 | CC(C)(NC(=O)Oc1cccnc1)c1csc(-c2ccc(F)cc2)n1 | < 4.00 | –
10 | CC(C)(NC(=O)O[C@@H]1CN2CCC1CC2)c1csc(-c2ccc(F)c(O)c2)n1 | – | AUClast/dose [2]: 6.27 ng·h/mL; concentration at 4 h [3]: > 18.8 ng/mL; half-life [4]: 158 min; Activity [5]: Toxic; Activity [6]: Non-Toxic; Activity [7]: Non-Toxic; Activity [8]: Non-Toxic; Activity [9]: Non-Toxic; Tmax [10]: 15 min; Activity [11]: Non-Toxic; Activity [12]: Non-Toxic; AUC(0-t) at 24 h [13]: 157 ng·h/mL
11 | CC(C)(NC(=O)O[C@@H]1CN2CCC1CC2)c1csc(-c2cccnc2)n1 | 5.55 | –
12 | CC(C)(NC(=O)O[C@@H]1CN2CCC1CC2)c1csc(-c2ccc(N)cc2)n1 | 5.12 | –
13 | CC(C)(NC(=O)O[C@@H]1CN2CCC1CC2)c1csc(-c2cccc(O)c2)n1 | 6.25 | –
14 | CC(C)(NC(=O)O[C@@H]1CN2CCC1CC2)c1csc(-c2ccc(F)nc2)n1 | 5.82 | –
15 | CC(C)(C(=O)N[C@@H]1CN2CCC1CC2)c1csc(-c2ccc(F)cc2)n1 | < 4.00 | –
16 | CC(C)(NC(=O)O[C@@H]1CN2CCC1CC2)c1csc(I)n1 | 4.34 | –

Row | Compound | pIC50 [1] | further results
17 | CC(C)(NC(=O)O[C@@H]1CN2CCC1CC2)c1csc(-c2ccccc2O)n1 | 5.34 | –
18 | COc1ccc(-c2nc(C(C)(C)NC(=O)O[C@@H]3CN4CCC3CC4)cs2)cc1 | 4.27 | –
19 | CC(C)(NC(=O)N[C@@H]1CN2CCC1CC2)c1csc(-c2ccc(F)cc2)n1 | 4.40 | –
20 | CC(C)(NC(=O)O[C@@H]1CN2CCC1CC2)c1csc(-c2ccc(F)cc2)n1 | – | inhibition [14]: Active
21 | CC(C)(NC(=O)O[C@@H]1CN2CCC1CC2)c1csc(-c2cncnc2)n1 | < 4.00 | –
22 | CCCN1CCC[C@H](OC(=O)NC(C)(C)c2csc(-c3ccc(F)cc3)n2)C1 | 4.74 | –
23 | CC(C)(NC(=O)OCCN1CCCCC1)c1csc(-c2ccc(F)cc2)n1 | < 4.00 | –
24 | CC(C)(NC(=O)O[C@@H]1CN2CCC1CC2)c1csc(-c2ccsc2)n1 | 5.04 | –
25 | CNc1nc(C(C)(C)NC(=O)O[C@@H]2CN3CCC2CC3)cs1 | 4.30 | –
26 | CC(C)(NC(=O)O[C@@H]1CN2CCC1CC2)c1csc(-c2cccc(N)c2)n1 | 5.12 | –
27 | CN1CCC[C@H](OC(=O)NC(C)(C)c2csc(-c3ccc(F)cc3)n2)C1 | 4.60 | –
28 | CC(C)(NC(=O)O[C@@H]1CN2CCC1CC2)c1csc(-c2cccc3ccccc23)n1 | 4.36 | –
29 | CC(C)(NC(=O)O[C@@H]1CN2CCC1CC2)c1csc(-c2ccc(F)cc2O)n1 | 6.52 | –
30 | CC(C)(NC(=O)O[C@@H]1CN2CCC1CC2)c1csc(-c2ccoc2)n1 | 4.04 | –
31 | CC(C)(NC(=O)O[C@@H]1CN2CCC1CC2)c1csc(-c2ccccc2N)n1 | 5.15 | –
32 | CC(C)(NC(=O)O[C@@H]1CN2CCC1CC2)c1csc(-c2ccco2)n1 | 4.68 | –
